The values that follow come from patent US10538520B2, “Benzamide and nicotinamide compounds and methods of using same” (OncoTartis Inc., priority 2013, dated 2020).

Some results are limits rather than exact numbers.

In general, IC50 refers to the point on the concentration scale where inhibition reaches its midpoint.

One assay deals with MV4-11. The assay is described as follows: Cytotoxicity towards MV4-11 cell line. Format: cell-based. Conditions: Homo sapiens. The method, then: (§1) In various embodiments, the compounds of the disclosure are those in which show IC50 values in cytotoxicity experiments towards cells lines MV4-11 and U937 of >20 μM, 10-20 μM, 5-10 μM, 1-5 μM, or <1 μM.
(§2) The IC50 is divided into 5 categories: A<1 μM, B 1-5 μM, C 5-10 μM, D 10-20 μM, and E>20 μM.

In a further assay the test system is U-937. The assay is described as follows: Cytotoxicity towards U-937 cell line. In kind it is cell-based. Conditions: Homo sapiens. The method, then:
as §1, §2

The test system of another assay is MV4-11 cells. Briefly: Subcutaneous MV4-11 xenograft model of AML in SCID mice, tumor growth. Format: in vivo. As to conditions: for maximum suppression of tumor growth (STG %): 6 days per week; for effect on tumor growth: SCID mice inoculated SC with MV4-11 cells (FIGS. 1 and 2). As for the experimental part: FIG. 1. Example of growth of tumors in MV4-11 xenograft model of AML in SCID mice treated with vehicle control and TT-03197 at 10 mg/kg and 40 mg/kg administered intraperitoneally. Mice were treated 6 days per week as indicated on the figure. Results are Mean±SE (n=14-16).
FIG. 2. Example of growth of tumors in MV4-11 xenograft model of AML in SCID mice treated with vehicle control and TT-03203 at 10 mg/kg and 25 mg/kg administered orally. Mice were treated 6 days per weeks as indicated on the figure. Results are Mean±SE (n=17-20)
Efficacy of compounds was tested in two types of xenograft models of leukemia: subcutaneous (SC) (development of tumors after SC inoculation of cells) and systemic and disseminated (development of tumors on different organs after intravenous inoculation of cells). MV4-11 cells (ATCC CRL-9591) of acute myelomonocytic leukemia (AML) were used.
The maximum suppression of tumor growth (calculated using formula: STG %=(volume control-volume treated)/volume control*100) was 28% for mice treated with 10 mg/kg of TT-03197 and 55% for mice treated with 40 mg/kg of […] (FIG. 1). For TT-03203 the maximum STG was 27% for mice treated PO with 10 mg/kg of TT-03203 and 46% for mice treated with 25 mg/kg of TT-03203 (FIG. 2).

For `O=C(NCCCc1cn[nH]c1)c1ccc(-n2cccn2)c(C#Cc2ccc(F)cc2)c1` [TT-03197], the IC50 in the assay on MV4-11 and in the assay on U-937 was under 1 µM throughout. Moreover, the “maximum suppression of tumor growth (STG %)” value in the assay with MV4-11 cells (10 mg/kg, intraperitoneally, SC MV4-11 xenograft (FIG. 1)) is given as 28%. Also, the “effect on tumor growth” value in the assay on MV4-11 cells is “dose-dependent reduction of tumor growth”.
For `O=C1CC2CCC(CN1)N2c1ncc(C(=O)NCCCc2cn[nH]c2)cc1C#Cc1ccc(F)cc1` (stereo not shown) [TT-03765], the IC50 in the assay with MV4-11 and with U-937 was under 1 µM throughout.
For `C[C@@H]1CN(c2ccc(C(=O)NCCCc3cn[nH]c3)cc2C#Cc2ccc(Cl)cc2)C[C@H](C)O1` [TT-03754], the IC50 with MV4-11 and with U-937 was under 1 µM throughout.
Take `O=C(NCCCc1cn[nH]c1)c1ccc(N2CCC3(CCCCC3)C2)c(C#Cc2ccc(F)cc2)c1` [TT-03590]: the IC50 in the assay with MV4-11 and in the assay on U-937 was under 1 µM in each case.
`O=C(NCCCc1ccccn1)c1ccc(-n2cccn2)c(C#Cc2cccnc2)c1` [TT-02941]: the values for the IC50 with MV4-11 and with U-937 were 10 to 20 µM and 5 to 10 µM, respectively.
Take `O=C(NCCCn1cccn1)c1ccc(-n2cccn2)c(C#Cc2ccccc2)c1` [TT-02709]: the IC50 was over 20 µM in the assay on MV4-11 and under 1 µM in the assay with U-937.
For `O=C(NCCCc1cn[nH]c1)c1ccc(-n2cnnc2)c(C#Cc2ccc(F)cc2)c1` [TT-03634], in that order: under 1 µM and under 1 µM.
For `Cn1nnnc1SCCNC(=O)c1ccc(-n2cccn2)c(C#Cc2cccnc2)c1` [TT-02939], in that order: over 20 µM and 5 to 10 µM.
The like results for `CN(C)CC1(O)CCN(c2ccc(C(=O)NCCCc3cn[nH]c3)cc2C#Cc2ccc(F)cc2)C1` (stereo not shown) [TT-03594] were, in that order, under 1 µM and under 1 µM.
As for `O=C(NCCCc1cn[nH]c1)c1ccc(N2CCOCC2)c(C#Cc2ccncc2)c1` [TT-03631], the IC50 in the assay with MV4-11 and with U-937 was under 1 µM each time.
With `O=C(c1ccc(-n2cccn2)c(C#Cc2ccccc2)c1)N1CCCC(Cn2ccnc2)C1` (stereo not shown) [TT-02796], the IC50 in the assay with MV4-11 and in the assay on U-937 was 10 to 20 µM in each case.
For `O=C(NCCCc1cn[nH]c1)c1ccc(-n2cccn2)c(C#Cc2cccc(Cl)c2)c1` [TT-03322], the IC50 with MV4-11 and in the assay on U-937 was under 1 µM throughout.
For `CC(C)(C)NC(=O)c1ccc(-n2cccn2)c(C#Cc2ccccn2)c1` [TT-02946], the IC50 is over 20 µM with MV4-11 and 5 to 10 µM in the assay with U-937.
For `O=C(NCCCn1ccnc1)c1ccc(-n2cccn2)c(C#Cc2cccc(Cl)c2)c1` [TT-02749], the IC50 in the assay with MV4-11 and in the assay with U-937 was under 1 µM each time.
Consider `Cn1ccnc1C(C)(O)CC1CCCN1C(=O)c1ccc(-n2cccn2)c(C#Cc2ccccc2)c1` (stereo not shown) [TT-02793], for which the figures for the IC50 in the assay on MV4-11 and in the assay with U-937 were over 20 µM and 5 to 10 µM, respectively.
The like results for `O=C(NCc1ccco1)c1ccc(-n2cccn2)c(C#Cc2ccccn2)c1` [TT-02947] were, in that order, over 20 µM and under 1 µM.
The like results for `C[C@@H]1CN(c2ccc(C(=O)N3CC[C@H](O)[C@@H](n4ccnc4)CC3)cc2C#Cc2ccc(F)cc2)C[C@H](C)O1` [TT-03732] were, in that order, under 1 µM and 1 to 5 µM.
As for `C[C@@H]1CN(c2ccc(C(=O)NC/C=C/c3cn[nH]c3)cc2C#Cc2ccc(F)cc2)C[C@H](C)O1` [TT-03718], the IC50 in the assay with MV4-11 and in the assay with U-937 was under 1 µM throughout.
Regarding `CC(CNC(=O)c1ccc(-n2cccn2)c(C#Cc2cccnc2)c1)n1cncn1` (stereo not shown) [TT-02933], the IC50 with MV4-11 and with U-937 was over 20 µM in each case.
In the case of `O=C(NCCc1cnccn1)c1ccc(-n2cccn2)c(C#Cc2ccccc2)c1` [TT-02943], the IC50 lay in the range of 10 to 20 µM in the assay on MV4-11 and 1 to 5 µM in the assay on U-937.
For `Cc1nc(C)n(CCNC(=O)c2ccc(-n3cccn3)c(C#Cc3ccccc3)c2)n1` [TT-02805], in that order: 1 to 5 µM and under 1 µM.
The like results for `Cc1nonc1CN(C)C(=O)c1ccc(-n2cccn2)c(C#Cc2ccccc2)c1` [TT-02800] were, in that order, 10 to 20 µM and 1 to 5 µM.
For `Cn1nnnc1SCCNC(=O)c1ccc(-n2cccn2)c(C#Cc2ccccc2)c1` [TT-02928], in that order: 10 to 20 µM and 5 to 10 µM.
Consider `Cc1cccc(C#Cc2cc(C(=O)NCCCn3ccnc3)ccc2-n2cccn2)c1` [TT-03327], for which the IC50 with MV4-11 and in the assay on U-937 was under 1 µM in each case.
As for `COc1cccc(C#Cc2cc(C(=O)NCCCn3ccnc3)ccc2-n2cccn2)c1` [TT-03309], the IC50 with MV4-11 and with U-937 was under 1 µM throughout.
For `O=C(NCCN1CCCC1=O)c1ccc(-n2cccn2)c(C#Cc2ccccc2)c1` [TT-02929], the IC50 in the assay on MV4-11 and with U-937 was over 20 µM each time.
Take `Cn1cc(CCCNC(=O)c2ccc(-n3cccn3)c(C#Cc3ccc(F)cc3)c2)cn1` [TT-03630]: the IC50 in the assay with MV4-11 and in the assay with U-937 was under 1 µM throughout.
As to `CN(C)c1cccc(C#Cc2cc(C(=O)NCCCc3cn[nH]c3)ccc2-n2cccn2)n1` [TT-03623], the half-inhibitory concentration (IC50) in the assay with MV4-11 and with U-937 was under 1 µM each time.
For `O=C(NCCCn1ccnc1)c1ccc(N2CCCC2)c(C#Cc2ccccc2)c1` [TT-02683], the IC50 in the assay on MV4-11 and in the assay on U-937 was under 1 µM each time.
With `Cc1cc(SCCNC(=O)c2ccc(-n3cccn3)c(C#Cc3ccccc3)c2)[nH]n1` [TT-02691], the IC50 in the assay on MV4-11 lay within 10 to 20 µM; in the assay with U-937, 5 to 10 µM.
For `O=C(NCCCc1cn[nH]c1)c1ccc(-n2cccn2)c(C#Cc2cccc(C(F)(F)F)c2)c1` [TT-03332], in that order: under 1 µM and under 1 µM.
For `CC(C)(C)OC(=O)NCc1ccc(C#Cc2cc(C(=O)NCCCc3cn[nH]c3)ccc2-n2cccn2)cc1` [TT-03364], in that order: 1 to 5 µM and 1 to 5 µM.
The like results for `COc1ccccc1C#Cc1cc(C(=O)NCCCc2cn[nH]c2)ccc1-n1cccn1` [TT-03330] were, in that order, under 1 µM and under 1 µM.
Consider `O=C(NCCCc1cn[nH]c1)c1ccc(N2CCCC2)c(C#Cc2ccccc2)c1` [TT-03230], for which the IC50 in the assay on MV4-11 and in the assay with U-937 was under 1 µM in each case.
Take `O=C(NCCCc1cn[nH]c1)c1ccc(-n2cccn2)c(C#Cc2ccc(Cl)cc2)c1` [TT-03203]: the IC50 in the assay with MV4-11 and in the assay on U-937 was under 1 µM in each case. Further, the “maximum suppression of tumor growth (STG %)” value with MV4-11 cells (10 mg/kg PO, SC MV4-11 xenograft (FIG. 2)) was 27%; in the assay on MV4-11 cells (25 mg/kg PO, SC MV4-11 xenograft (FIG. 2)), 46%; in the assay with MV4-11 cells (40 mg/kg, intraperitoneally, SC MV4-11 xenograft (FIG. 1)), 55%. Also, the “effect on tumor growth” value in the assay with MV4-11 cells is on record as “dose-dependent reduction of tumor growth”.
Turning to `C#Cc1cc(C(=O)NCCCn2ccnc2)ccc1-n1cccn1` [TT-02752], the IC50 in the assay with MV4-11 lay within 5 to 10 µM; in the assay with U-937, 10 to 20 µM.
For `O=C(NCCCn1ccnc1)c1ccc(N2CCOCC2)c(C#Cc2ccccc2)c1` [TT-03261], in that order: under 1 µM and under 1 µM.
For `O=C(NCCCc1cn[nH]c1)c1ccc(N2CCCCC2)c(C#Cc2ccc(F)cc2)c1` [TT-03588], in that order: under 1 µM and under 1 µM.
The like results for `O=C(NCCCc1cn[nH]c1)c1ccc(N2CCOCC2)c(C#Cc2ccccc2)c1` [TT-03232] were, in that order, under 1 µM and under 1 µM.
Regarding `O=C(NCc1cccnc1)c1ccc(-n2cccn2)c(C#Cc2ccccc2)c1` [TT-02684], the IC50 with MV4-11 and in the assay on U-937 was under 1 µM throughout.
Regarding `O=C(NCCCn1ccnc1)c1ccc(-n2cccn2)c(C#Cc2ccccc2F)c1` [TT-03225], the IC50 in the assay on MV4-11 and with U-937 was under 1 µM each time.
With `Cc1ccc(C#Cc2cc(C(=O)NCCCn3ccnc3)ccc2-n2cccn2)cc1` [TT-02745], the IC50 in the assay with MV4-11 and in the assay with U-937 was under 1 µM in each case.
With `O=C(NCCCc1cn[nH]c1)c1ccc(-n2cccn2)c(C#Cc2ccccc2C(F)(F)F)c1` [TT-03323], the IC50 in the assay with MV4-11 and in the assay on U-937 was under 1 µM in each case.
As to `O=C(NCCCc1cn[nH]c1)c1ccc(-n2cccn2)c(C#Cc2cccc(F)c2)c1` [TT-03198], the IC50 in the assay with MV4-11 and with U-937 was under 1 µM throughout.
Consider `Cc1nccn1CCCNC(=O)c1ccc(-n2cccn2)c(C#Cc2ccccc2)c1` [TT-02689], for which the IC50 in the assay with MV4-11 and in the assay on U-937 was 1 to 5 µM throughout.
Regarding `Cc1n[nH]c(SCCNC(=O)c2ccc(-n3cccn3)c(C#Cc3cccnc3)c2)n1` [TT-02940], the IC50 with MV4-11 was over 20 µM; in the assay with U-937, 10 to 20 µM.
For `O=C(NCCCc1cn[nH]c1)c1ccc(-n2cccn2)c(C#Cc2ccccn2)c1` [TT-03355], in that order: under 1 µM and under 1 µM.
